Laboratory results published in patent publication US20100022531A1, “NOVEL COMPOUNDS AS P2X7 MODULATORS AND USES THEREOF” (RENOVIS, INC., priority 2005, published 2010).
Read-outs that look alike come from different tables or passages of the source.

Biological target: T1, P2X7 receptor (Homo sapiens, UniProt Q99572)
T1 construct: host or cells: THP-1 cells differentiated with LPS and IFN-γ
T1 sequence (Q99572 1-595): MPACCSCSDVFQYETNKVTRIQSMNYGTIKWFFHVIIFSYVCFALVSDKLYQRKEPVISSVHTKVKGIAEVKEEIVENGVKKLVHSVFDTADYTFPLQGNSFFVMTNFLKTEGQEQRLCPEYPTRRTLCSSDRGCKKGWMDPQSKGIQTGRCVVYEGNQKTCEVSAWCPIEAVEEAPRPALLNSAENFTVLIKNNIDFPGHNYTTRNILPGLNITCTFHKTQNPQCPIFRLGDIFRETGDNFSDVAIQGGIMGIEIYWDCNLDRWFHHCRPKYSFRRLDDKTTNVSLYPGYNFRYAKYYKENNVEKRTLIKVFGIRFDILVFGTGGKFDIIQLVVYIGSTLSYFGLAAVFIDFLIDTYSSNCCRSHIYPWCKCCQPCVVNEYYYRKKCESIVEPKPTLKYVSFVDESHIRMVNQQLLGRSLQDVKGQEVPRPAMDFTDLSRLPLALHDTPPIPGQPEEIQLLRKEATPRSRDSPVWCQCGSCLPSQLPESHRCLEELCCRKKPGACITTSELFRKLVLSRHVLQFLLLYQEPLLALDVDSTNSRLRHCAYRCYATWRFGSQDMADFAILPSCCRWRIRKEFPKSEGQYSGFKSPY
Experiment: Alternate method for IL-1β release assay (differentiated THP-1 cells, BzATP-stimulated, ELISA)
Format: cell-based
Conditions: for inhibition at 0.1 µM: 0.1 μM compound (plus symbols), read-out: IL-1β % inhib @ 0.1 μM
Experimental: Alternate Method for IL-1β Release Assay
THP-1 cells (ATCC Cat #285-IF-100) are plated in 96 well plates at a concentration of 200,000 cells per well and allowed to differentiate in RPMI-1640 media (ATCC Cat #30-2001) containing 10% FBS, 100 IU/mL penicillin, 100 ug/mL streptomycin, 100 ng/mL LPS and 100 ng/mL IFN-γ for 16 hours. Following differentiation, the cells are treated for an additional 2 hours in RPMI-1640 media containing 100 IU/mL penicillin, 100 ug/mL streptomycin and fresh LPS at 100 ng/mL. The cells are then pretreated for 30 minutes with the compound of interest at the appropriate concentration in RPMI media containing 100 IU/mL penicillin, 100 ug/mL streptomycin. Following the pretreatment 2′,3′-O-(4-benzoylbenzoyl)-adenosine 5′-triphosphate (Sigma Aldrich Cat# B6396) is added to a final concentration of 250 uM and the cells incubated for an additional 45 minutes. 30 uL of cell supernatant is then collected and IL-1β levels determined via ELISA (R&D systems Cat. # HSLB50) according to manufacturers recommendations using the Tecan Safire plate reader. Background adjusted IL-1β levels of drug treated and non-treated cells are used to calculate the percent inhibition.

[1] = P2X7, 0.3 μM compound (asterisk symbols), read-out: IL-1β % inhib @ 0.3 μM

SMILES | inhibition at 0.3 µM [1] | further results
c1ccc(CN2CCc3c(ncnc3NCC34CC5CC(CC(C5)C3)C4)C2)cc1 [Compound 1, Adamantan-1-ylmethyl-(7-benzyl-5,6,7,8-tetrahydro-pyrido[3,4-d]pyrimidin-4-yl)-amine] | – | inhibition at 0.1 µM (P2X7): > 75%
CC12CC3CC(C)(C1)CC(CNc1ncnc4c1CCN(Cc1ccccc1)C4)(C3)C2 [Compound 2] | 0 to 25% | –
CS(=O)(=O)N1CCc2c(ncnc2NCC23CC4CC(CC(C4)C2)C3)C1 [Compound 3] | 25 to 50% | –
O=S(=O)(c1ccccc1)N1CCc2c(ncnc2NCC23CC4CC(CC(C4)C2)C3)C1 [Compound 4, Adamantan-1-ylmethyl-(7-benzenesulfonyl-5,6,7,8-tetrahydro-pyrido[3,4-d]pyrimidin-4-yl)-amine] | – | inhibition at 0.3 µM (P2X7, read-out: IL-1β % inhib @ 0.3 μM): 50 to 75%
Cc1ccc(S(=O)(=O)N2CCc3c(ncnc3NCC34CC5CC(CC(C5)C3)C4)C2)cc1 [Compound 5] | 50 to 75% | –
O=S(=O)(c1ccc2ccccc2c1)N1CCc2c(ncnc2NCC23CC4CC(CC(C4)C2)C3)C1 [Compound 6] | 0 to 25% | –
O=S(=O)(c1cccc2cccnc12)N1CCc2c(ncnc2NCC23CC4CC(CC(C4)C2)C3)C1 [Compound 7] | > 75% | –
CCCS(=O)(=O)N1CCc2c(ncnc2NCC23CC4CC(CC(C4)C2)C3)C1 [Compound 8] | 50 to 75% | –
CCS(=O)(=O)N1CCc2c(ncnc2NCC23CC4CC(CC(C4)C2)C3)C1 [Compound 9] | – | inhibition at 0.1 µM (P2X7): > 75%
COc1ccc(S(=O)(=O)N2CCc3c(ncnc3NCC34CC5CC(CC(C5)C3)C4)C2)cc1 [Compound 10] | 25 to 50% | –
O=S(=O)(c1ccc(Cl)cc1)N1CCc2c(ncnc2NCC23CC4CC(CC(C4)C2)C3)C1 [Compound 11] | 0 to 25% | –
COc1ccc(S(=O)(=O)N2CCc3c(ncnc3NCC34CC5CC(CC(C5)C3)C4)C2)cc1OC [Compound 12] | 25 to 50% | –
O=S(=O)(c1ccc(F)cc1)N1CCc2c(ncnc2NCC23CC4CC(CC(C4)C2)C3)C1 [Compound 13] | 25 to 50% | –
O=S(=O)(Cc1ccccc1)N1CCc2c(ncnc2NCC23CC4CC(CC(C4)C2)C3)C1 [Compound 14] | > 75% | –
O=S(=O)(c1cccc(C(F)(F)F)c1)N1CCc2c(ncnc2NCC23CC4CC(CC(C4)C2)C3)C1 [Compound 15] | 0 to 25% | –
O=S(=O)(c1ccc(OC(F)(F)F)cc1)N1CCc2c(ncnc2NCC23CC4CC(CC(C4)C2)C3)C1 [Compound 16] | 0 to 25% | –
CN1CCOc2cc(S(=O)(=O)N3CCc4c(ncnc4NCC45CC6CC(CC(C6)C4)C5)C3)ccc21 [Compound 17] | 0 to 25% | –
Cc1nn(C)c(Cl)c1S(=O)(=O)N1CCc2c(ncnc2NCC23CC4CC(CC(C4)C2)C3)C1 [Compound 18] | 0 to 25% | –
Cc1c(S(=O)(=O)N2CCc3c(ncnc3NCC34CC5CC(CC(C5)C3)C4)C2)cnn1-c1ccccc1 [Compound 19] | 50 to 75% | –
O=S(=O)(c1cccc(OC(F)(F)F)c1)N1CCc2c(ncnc2NCC23CC4CC(CC(C4)C2)C3)C1 [Compound 20] | 25 to 50% | –
COc1cccc(S(=O)(=O)N2CCc3c(ncnc3NCC34CC5CC(CC(C5)C3)C4)C2)c1 [Compound 21] | 50 to 75% | –
Cc1nc(S(=O)(=O)N2CCc3c(ncnc3NCC34CC5CC(CC(C5)C3)C4)C2)cn1C [Compound 22] | 0 to 25% | –
N#Cc1ccc(S(=O)(=O)N2CCc3c(ncnc3NCC34CC5CC(CC(C5)C3)C4)C2)c(Cl)c1 [Compound 23] | 0 to 25% | –
O=S(=O)(c1ccccc1F)N1CCc2c(ncnc2NCC23CC4CC(CC(C4)C2)C3)C1 [Compound 24] | – | inhibition at 0.1 µM (P2X7): > 75%
N#Cc1ccc(S(=O)(=O)N2CCc3c(ncnc3NCC34CC5CC(CC(C5)C3)C4)C2)cc1 [Compound 25] | 25 to 50% | –
Cc1noc(C)c1S(=O)(=O)N1CCc2c(ncnc2NCC23CC4CC(CC(C4)C2)C3)C1 [Compound 26] | 50 to 75% | –
O=c1ccc2cc(S(=O)(=O)N3CCc4c(ncnc4NCC45CC6CC(CC(C6)C4)C5)C3)ccc2o1 [Compound 28] | 25 to 50% | –
O=S(=O)(c1ccc(Oc2ccccn2)cc1)N1CCc2c(ncnc2NCC23CC4CC(CC(C4)C2)C3)C1 [Compound 29] | > 75% | –

SMILES | inhibition at 0.3 µM [1] | further results
O=S(=O)(c1ccc(Oc2ccncc2)cc1)N1CCc2c(ncnc2NCC23CC4CC(CC(C4)C2)C3)C1 [Compound 31] | 25 to 50% | –
COc1ccc(Oc2ccc(S(=O)(=O)N3CCc4c(ncnc4NCC45CC6CC(CC(C6)C4)C5)C3)cc2)cc1 [Compound 32] | 0 to 25% | –
O=S(=O)(c1ccc(Oc2ccc(C(F)(F)F)cc2)cc1)N1CCc2c(ncnc2NCC23CC4CC(CC(C4)C2)C3)C1 [Compound 33] | 0 to 25% | –
O=S(=O)(c1cccc(Oc2ccc(Cl)c(Cl)c2)c1)N1CCc2c(ncnc2NCC23CC4CC(CC(C4)C2)C3)C1 [Compound 34] | 0 to 25% | –
COc1ccc(-c2ccc(S(=O)(=O)N3CCc4c(ncnc4NCC45CC6CC(CC(C6)C4)C5)C3)cc2)cc1 [Compound 35] | 0 to 25% | –
O=S(=O)(c1cc(C(F)(F)F)ccc1Cl)N1CCc2c(ncnc2NCC23CC4CC(CC(C4)C2)C3)C1 [Compound 37] | 25 to 50% | –
O=S(=O)(Cc1cc(C(F)(F)F)cc(C(F)(F)F)c1)N1CCc2c(ncnc2NCC23CC4CC(CC(C4)C2)C3)C1 [Compound 38] | 0 to 25% | –
O=S(=O)(Cc1ccc(C(F)(F)F)cc1)N1CCc2c(ncnc2NCC23CC4CC(CC(C4)C2)C3)C1 [Compound 39] | 0 to 25% | –
O=S(=O)(Cc1ccc(F)cc1)N1CCc2c(ncnc2NCC23CC4CC(CC(C4)C2)C3)C1 [Compound 40] | 0 to 25% | –
O=S(=O)(Cc1ccc(Cl)c(Cl)c1)N1CCc2c(ncnc2NCC23CC4CC(CC(C4)C2)C3)C1 [Compound 41] | 0 to 25% | –
O=S(=O)(Cc1cc(Cl)cc(Cl)c1)N1CCc2c(ncnc2NCC23CC4CC(CC(C4)C2)C3)C1 [Compound 42] | 25 to 50% | –
O=S(=O)(Cc1cccc(C(F)(F)F)c1)N1CCc2c(ncnc2NCC23CC4CC(CC(C4)C2)C3)C1 [Compound 43] | 25 to 50% | –
O=S(=O)(Cc1ccc(Cl)cc1)N1CCc2c(ncnc2NCC23CC4CC(CC(C4)C2)C3)C1 [Compound 45] | 25 to 50% | –
O=S(=O)(c1ccc(OC(F)F)cc1)N1CCc2c(ncnc2NCC23CC4CC(CC(C4)C2)C3)C1 [Compound 46] | 25 to 50% | –
O=S(=O)(c1ccc(Oc2ccccc2)cc1)N1CCc2c(ncnc2NCC23CC4CC(CC(C4)C2)C3)C1 [Compound 47] | – | inhibition at 0.1 µM (P2X7): 50 to 75%
O=S(=O)(c1ccccc1Cl)N1CCc2c(ncnc2NCC23CC4CC(CC(C4)C2)C3)C1 [Compound 48] | > 75% | –
O=S(=O)(c1ccc(F)c(Cl)c1)N1CCc2c(ncnc2NCC23CC4CC(CC(C4)C2)C3)C1 [Compound 49] | 50 to 75% | –
O=S(=O)(c1ccccc1-c1ccccc1)N1CCc2c(ncnc2NCC23CC4CC(CC(C4)C2)C3)C1 [Compound 50] | – | inhibition at 0.1 µM (P2X7): 25 to 50%
O=S(=O)(c1ccccc1C(F)(F)F)N1CCc2c(ncnc2NCC23CC4CC(CC(C4)C2)C3)C1 [Compound 51] | 0 to 25% | –
O=S(=O)(c1ccc(-n2cccn2)cc1)N1CCc2c(ncnc2NCC23CC4CC(CC(C4)C2)C3)C1 [Compound 52] | 0 to 25% | –
COc1ccc(S(=O)(=O)N2CCc3c(ncnc3NCC34CC5CC(CC(C5)C3)C4)C2)c(OC)c1 [Compound 53] | 50 to 75% | –
Cc1nn(C)c(C)c1S(=O)(=O)N1CCc2c(ncnc2NCC23CC4CC(CC(C4)C2)C3)C1 [Compound 54] | 0 to 25% | –
O=S(=O)(c1ccccc1OC(F)(F)F)N1CCc2c(ncnc2NCC23CC4CC(CC(C4)C2)C3)C1 [Compound 55] | 0 to 25% | –
Cc1ccccc1S(=O)(=O)N1CCc2c(ncnc2NCC23CC4CC(CC(C4)C2)C3)C1 [Compound 56] | 25 to 50% | –
O=S(=O)(c1ccc2c(c1)OCCO2)N1CCc2c(ncnc2NCC23CC4CC(CC(C4)C2)C3)C1 [Compound 57] | 50 to 75% | –
O=S(=O)(c1ccc(C(F)(F)F)cc1)N1CCc2c(ncnc2NCC23CC4CC(CC(C4)C2)C3)C1 [Compound 58] | 0 to 25% | –
O=S(=O)(c1ccc(Cl)cc1F)N1CCc2c(ncnc2NCC23CC4CC(CC(C4)C2)C3)C1 [Compound 59] | 25 to 50% | –
